The target of one assay is T1, GRK2 (Homo sapiens, UniProt P25098).
T1 construct: purchased SignalChem A14-10G
T1 sequence (P25098 1-689): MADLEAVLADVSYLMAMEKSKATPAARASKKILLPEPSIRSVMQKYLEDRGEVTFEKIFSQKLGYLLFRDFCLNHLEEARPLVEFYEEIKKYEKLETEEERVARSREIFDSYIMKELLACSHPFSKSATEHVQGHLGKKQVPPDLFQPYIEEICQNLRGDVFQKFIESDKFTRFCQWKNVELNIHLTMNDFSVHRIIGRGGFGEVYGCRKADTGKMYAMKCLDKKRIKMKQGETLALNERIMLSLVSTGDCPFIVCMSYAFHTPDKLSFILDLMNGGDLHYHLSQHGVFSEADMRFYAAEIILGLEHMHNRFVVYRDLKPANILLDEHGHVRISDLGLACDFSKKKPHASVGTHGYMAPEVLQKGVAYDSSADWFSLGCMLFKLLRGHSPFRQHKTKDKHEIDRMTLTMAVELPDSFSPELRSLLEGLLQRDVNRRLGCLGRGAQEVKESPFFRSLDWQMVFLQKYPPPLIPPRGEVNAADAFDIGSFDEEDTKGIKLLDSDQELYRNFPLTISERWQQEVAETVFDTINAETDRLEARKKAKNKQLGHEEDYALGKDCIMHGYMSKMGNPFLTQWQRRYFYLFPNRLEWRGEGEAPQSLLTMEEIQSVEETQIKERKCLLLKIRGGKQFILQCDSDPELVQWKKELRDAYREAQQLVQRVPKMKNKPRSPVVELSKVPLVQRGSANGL
Description: ADPGlo GRK2 Inhibition Assay (Example 8). Type of assay: biochemical. The note with it: ADPGlo GRK2 enzyme assay; read-out: A: Enzymatic GRK2: IC50 (nM) (Example 8). The method, boiled down: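 GRK2 (15 nM 2× enzyme solution) was preincubated 15 min with compound, then reacted 180 min at room temperature with 2× mix of 20 μM ATP plus GRKtide in HEPES pH 7.5, MgCl2, Tween-20, DTT. ADP was detected by ADP-Glo luminescence. Percent inhibition was normalised to enzyme and no-enzyme controls, with dose-response curves from threefold dilutions starting at 100 μM.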

Assay [1] relates to PAXF1657 control empty vector cell line. Description: 7-day proliferation assay, PAXF1657 control empty vector cell line (Example 9). The class given is cell-based. As to conditions: 168 h; Cell Line: PAXF1657 empty vector (EV) cell line; 7-day; read-out: C: 7-day proliferation assay: IC50 GeoMean. The method in brief: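 PAXF1657 pancreatic cancer cells (GRK2-overexpressing vs empty vector; CRISPR GRK2 knockout vs non-targeting control) were seeded at 500 cells/well in RPMI1640/10% FBS, then given a 10-point series, 30 μM-0.0002 μM in 0.3% DMSO. Medium and compound were refreshed after 3 days; CellTiter-Glo luminescence was read at day 7.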

Structures are written as SMILES. Where only a bound is given, the exact number is not on record here.

As for `CCOc1cccc(CNC(=O)c2cccc(NCc3nnc(-c4ccncn4)n3C)c2)c1`, the figures for the IC50 (at GRK2; in assay [1]) were 73.6 nM and over 30000 nM, respectively.

For the compound `CCOc1ccc(CNC(=O)c2cccc(NCc3nnc(-c4ccncn4)n3C)c2)cc1`, the figures for the IC50 (on GRK2; in assay [1]) were 35.3 nM and 1200 nM, respectively.

Regarding `Cn1c(CNc2cccc(C(=O)NCc3ccc(C(F)F)nc3)c2)nnc1-c1ccncn1`, the IC50 is 44.6 nM on GRK2 and over 4160 nM in assay [1].

As for `CC1Oc2ccccc2C1NC(=O)c1cccc(NCc2nnc(-c3ccncn3)n2C)c1` (stereo not shown), the IC50 on GRK2 is 7.43 nM; in assay [1], 1790 nM.

Turning to `COc1cccc(C)c1CNC(=O)c1cccc(NCc2nnc(-c3ccncn3)n2C)c1`, the IC50 at GRK2 was 8.2 nM; in assay [1] it was 246 nM.

As for `COc1ccc(CNC(=O)c2cccc(NCc3nnc(-c4ccncn4)n3C)c2)cc1F`, the IC50 on GRK2 was 30.1 nM; in assay [1], 6650 nM.

In the case of `Cn1c(CNc2cccc(C(=O)NC3COc4ccccc4C3)c2)nnc1-c1ccncn1` (stereo not shown), the IC50 on GRK2 is 68.4 nM; in assay [1], over 12600 nM.

As to `Cc1ccc2c(c1)C(NC(=O)c1cccc(NCc3nnc(-c4ccncn4)n3C)c1)CO2` (stereo not shown), the IC50 came out at 18.8 nM at GRK2 and 332 nM in assay [1].

For the compound `Cn1c(CNc2cccc(C(=O)NCC3COc4ccccc43)c2)nnc1-c1ccncn1` (stereo not shown), the IC50 is 54.7 nM at GRK2 and over 5210 nM in assay [1].

Turning to `Cn1c(CNc2cccc(C(=O)NC(CCO)c3ccccc3)c2)nnc1-c1ccncn1` (stereo not shown), the figures for the IC50 (on GRK2; in assay [1]) were 26.4 nM and 1090 nM, respectively.

With `Cc1ccc(C(C)NC(=O)c2cccc(NCc3nnc(-c4ccncn4)n3C)c2)nc1` (stereo not shown), the IC50 is 74 nM at GRK2 and over 5020 nM in assay [1].

In the case of `Cc1cncc(C(C)NC(=O)c2cccc(NCc3nnc(-c4ccncn4)n3C)c2)c1` (stereo not shown), the figures for the IC50 (on GRK2; in assay [1]) were 16.2 nM and 784 nM, respectively.

`CC(C)C(NC(=O)c1cccc(NCc2nnc(-c3ccncn3)n2C)c1)c1ccccn1` (stereo not shown): the results for the IC50 (on GRK2; in assay [1]) were 52.8 nM and 1900 nM, respectively.

`Cn1ccnc1C(NC(=O)c1cccc(NCc2nnc(-c3ccncn3)n2C)c1)C1CC1` (stereo not shown): the IC50 at GRK2 is 52.9 nM; in assay [1], 3750 nM.

For `COc1ccc(C(C)NC(=O)c2cccc(NCc3nnc(-c4ccncn4)n3C)c2)cn1` (stereo not shown), the IC50 on GRK2 is 22.6 nM; in assay [1], 1710 nM.

For the compound `Cn1c(CNc2cccc(C(=O)NC(c3ccccn3)C3CC3)c2)nnc1-c1ccncn1` (stereo not shown), the IC50 was 68.9 nM on GRK2 and 2630 nM in assay [1].

For `Cn1c(CNc2cccc(C(=O)NCc3ccccc3N3CCNCC3)c2)nnc1-c1ccncn1`, the IC50 at GRK2 amounted to 65.8 nM; in assay [1], 7890 nM.

For `Cn1c(CNc2cccc(C(=O)NC3CCc4c(O)cccc43)c2)nnc1-c1ccncn1` (stereo not shown), the values for the IC50 (on GRK2; in assay [1]) were 47.2 nM and 8840 nM, respectively.

Take `CN(C)S(=O)(=O)c1cccc(F)c1CNC(=O)c1cccc(NCc2nnc(-c3ccncn3)n2C)c1`: the IC50 at GRK2 is 5.78 nM; in assay [1], 263 nM.

As to `Cn1c(CNc2cccc(C(=O)N[C@@H](C#N)c3cc(F)ccc3F)c2)nnc1-c1ccncn1`, the IC50 on GRK2 is 15.7 nM; in assay [1] it was 244 nM.

For `Cn1c(CNc2cccc(C(=O)N[C@H](C#N)c3cc(F)ccc3F)c2)nnc1-c1ccncn1`, the IC50 on GRK2 came out at 17.7 nM; in assay [1], 808 nM.

On to `Cc1ccccc1[C@H](C#N)NC(=O)c1cccc(NCc2nnc(-c3ccncn3)n2C)c1`, for which the IC50 came out at 4.63 nM at GRK2 and 30.4 nM in assay [1].

In the case of `Cc1ccccc1[C@@H](C#N)NC(=O)c1cccc(NCc2nnc(-c3ccncn3)n2C)c1`, the figures for the IC50 (on GRK2; in assay [1]) were 4.97 nM and 35.5 nM, respectively.

With `Cn1c(CNc2cccc(C(=O)N[C@H](C#N)c3cccnc3)c2)nnc1-c1ccncn1`, the IC50 at GRK2 was determined as 20.3 nM; in assay [1] it was 3430 nM.

As for `CCCCCOc1ccc2c(c1)[C@@H](NC(=O)c1cccc(NCc3nnc(-c4ccncn4)n3C)c1)CCO2`, the IC50 turned out to be 12.6 nM on GRK2 and 2130 nM in assay [1].

As for `CCCCCOc1ccc2c(c1)[C@@H](NC(=O)c1cccc(NCc3nnc(-c4ccncn4)n3C)c1)CO2`, the IC50 is 8.3 nM at GRK2 and 236 nM in assay [1].

Take `CCCn1c(CNc2cccc(C(=O)N[C@@H](C)c3cccc(OC)c3)c2)nnc1-c1ccncn1`: the values for the IC50 (on GRK2; in assay [1]) were 14.1 nM and over 30000 nM, respectively.

With `CCCn1c(CNc2cccc(C(=O)N[C@H](C)c3cccc(OC)c3)c2)nnc1-c1ccncn1`, the IC50 is 40.1 nM on GRK2 and over 219 nM in assay [1].

On to `COc1cccc([C@H](C)NC(=O)c2cccc(NCc3nnc4n3CCOc3cnccc3-4)c2)c1`, for which the IC50 at GRK2 came to 6.52 nM; in assay [1], 10100 nM.

Take `COc1cccc([C@@H](C)NC(=O)c2cccc(NCc3nnc4n3CCOc3cnccc3-4)c2)c1`: the IC50 on GRK2 is 15.9 nM; in assay [1] it was over 3650 nM.

In the case of `COc1cccc([C@H](C)NC(=O)c2cccc(NCc3nnc(-c4ccncn4)n3CCO)c2)c1`, the IC50 was determined as 2.41 nM on GRK2 and 30.7 nM in assay [1].

In the case of `COc1cccc([C@@H](C)NC(=O)c2cccc(NCc3nnc(-c4ccncn4)n3CCO)c2)c1`, the IC50 on GRK2 was found to be 4.91 nM; in assay [1], 1230 nM.

Consider `COc1cccc([C@H](C)NC(=O)c2cccc(NCc3nnc(-c4ccncc4)n3CCO)c2)c1`, for which the IC50 at GRK2 was 2.99 nM; in assay [1], over 30000 nM.

For the compound `COc1cccc([C@@H](C)NC(=O)c2cccc(NCc3nnc(-c4ccncc4)n3CCO)c2)c1`, the IC50 is 99.4 nM at GRK2 and over 30000 nM in assay [1].

With `C[C@H](NC(=O)c1cccc(NCc2nnc(-c3ccncc3)n2CCO)c1)c1ncccc1Cl`, the IC50 was found to be 28.3 nM on GRK2 and 80.9 nM in assay [1].

On to `COc1cccc([C@H](C)NC(=O)c2cccc(NCc3nnc(-c4ccncc4F)n3C)c2)c1`, for which the IC50 was 11.6 nM at GRK2 and over 30000 nM in assay [1].

Turning to `COc1cccc([C@@H](C)NC(=O)c2cccc(NCc3nnc(-c4ccncc4F)n3C)c2)c1`, the IC50 at GRK2 is 181 nM; in assay [1], over 30000 nM.

For `C[C@H](NC(=O)c1cccc(NCc2nnc(-c3ccncc3F)n2C)c1)c1ncccc1Cl`, the IC50 at GRK2 stood at 52.8 nM; in assay [1] it was 1030 nM.

With `C[C@@H](NC(=O)c1cccc(NCc2nnc(-c3ccncc3F)n2C)c1)c1ncccc1Cl`, the IC50 at GRK2 was found to be 54.7 nM; in assay [1] it was 135 nM.

`O=C(NCc1cnc2ccccn12)c1cccc(NCc2nnc(-c3ccncc3)n2CCO)c1`: the IC50 on GRK2 is 5.77 nM; in assay [1], over 30000 nM.

`Cc1cccc2ncc(CNC(=O)c3cccc(NCc4nnc(-c5ccncc5)n4CCO)c3)n12`: the IC50 is 5.86 nM on GRK2 and over 30000 nM in assay [1].

Regarding `CCc1cnccc1CNC(=O)c1cccc(NCc2nnc(-c3ccncc3)n2CCO)c1`, the values for the IC50 (at GRK2; in assay [1]) were 14.3 nM and over 30000 nM, respectively.

For `Cn1c(CNc2cc(C(=O)N[C@H]3COCc4ccccc43)ccn2)nnc1-c1ccncn1`, the IC50 on GRK2 came to 71.1 nM; in assay [1] it was 11000 nM.

For the compound `Cn1c(CNc2cc(C(=O)N[C@H]3COc4cc(F)ccc43)ccn2)nnc1-c1ccncn1`, the IC50 on GRK2 was 118 nM; in assay [1] it was 1930 nM.

As for `Cc1ccc(C#N)cc1CNC(=O)c1ccnc(NCc2nnc(-c3ccncn3)n2C)c1`, the figures for the IC50 (on GRK2; in assay [1]) were 7.07 nM and 1410 nM, respectively.

As to `COc1ncc(Br)cc1CNC(=O)c1ccnc(NCc2nnc(-c3ccncn3)n2C)c1`, the results for the IC50 (on GRK2; in assay [1]) were 28.1 nM and over 30000 nM, respectively.

With `COc1cccc([C@H](C)NC(=O)c2ccnc(NCc3nnc(-c4ccncn4)n3C)c2)c1`, the IC50 at GRK2 was found to be 125 nM; in assay [1], 8000 nM.

In the case of `COc1cccc([C@@H](C)NC(=O)c2ccnc(NCc3nnc(-c4ccncn4)n3C)c2)c1`, the figures for the IC50 (at GRK2; in assay [1]) were 9.89 nM and 468 nM, respectively.

Consider `Cc1cccc2ncc(CNC(=O)c3cccc(NCc4nnc(-c5ccncc5)[nH]4)c3)n12`, for which the IC50 at GRK2 is 8.9 nM; in assay [1], over 10200 nM.

Regarding `Cc1cccnc1CNC(=O)c1cccc(NCc2nnc(-c3ccncc3)[nH]2)c1`, the IC50 at GRK2 is 12.2 nM; in assay [1], over 30000 nM.

On to `[2H]C([2H])(Nc1cccc(C(=O)N[C@@H]2COc3ccccc32)c1)c1nnc(-c2ccncn2)n1CCO`, for which the results for the IC50 (at GRK2; in assay [1]) were 3.76 nM and 96 nM, respectively.

With `Cc1cccc2ncc(CNC(=O)c3cccc(NCc4nnc(-c5ccncc5F)n4C)c3)n12`, the figures for the IC50 (on GRK2; in assay [1]) were 3.91 nM and over 1360 nM, respectively.

Consider `Cn1c(CNc2cccc(C(=O)NCc3cnc4ccccn34)c2)nnc1-c1ccncc1F`, for which the values for the IC50 (on GRK2; in assay [1]) were 39 nM and over 30000 nM, respectively.

These data come from US20230009608A1, “GRK2 INHIBITORS AND USES THEREOF” (Cygnal Therapeutics, Inc., priority 2020, published 2023).
